One assay addresses T1, CD73 (Homo sapiens, UniProt P21589).
T1 construct: purchased R&D systems 5795-EN-010
T1 sequence (P21589 27-547 limits assumed): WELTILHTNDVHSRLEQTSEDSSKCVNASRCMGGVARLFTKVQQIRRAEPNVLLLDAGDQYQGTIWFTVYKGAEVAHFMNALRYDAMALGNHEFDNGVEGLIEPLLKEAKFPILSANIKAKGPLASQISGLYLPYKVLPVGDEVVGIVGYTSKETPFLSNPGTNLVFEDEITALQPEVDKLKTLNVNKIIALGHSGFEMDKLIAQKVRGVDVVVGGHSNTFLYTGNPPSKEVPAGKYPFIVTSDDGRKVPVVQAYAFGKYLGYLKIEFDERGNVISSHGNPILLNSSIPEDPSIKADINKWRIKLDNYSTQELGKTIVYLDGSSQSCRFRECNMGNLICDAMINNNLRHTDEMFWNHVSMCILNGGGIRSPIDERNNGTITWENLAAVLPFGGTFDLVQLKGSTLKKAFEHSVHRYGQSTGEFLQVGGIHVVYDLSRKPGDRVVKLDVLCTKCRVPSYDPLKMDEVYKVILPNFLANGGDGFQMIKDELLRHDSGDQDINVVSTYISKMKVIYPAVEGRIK
Description: In vitro enzymatic activity against CD73 (malachite green test using soluble CD73). In kind it is biochemical. The settings on record: soluble CD73 36 ng/mL, 50 μM AMP, 30 minutes at 25° C. On the procedure: The malachite green test using soluble CD73, which is synthesized in vitro was used in the present invention to determine the characteristics of inhibitory activity of the compounds against CD73. The specific experimental procedures were as following:
1. The enzyme reaction in this experiment was carried out in 384-well plates, and CD73 (R&D systems #5795-EN-010) at a concentration of 36 ng/mL, the compounds at different concentrations and 50 μM AMP were incubated for 30 minutes at 25° C. in a 40 uL reaction system (consisting of 25 mM Tris pH 7.5, 5 mM MgCl2, and 0.005% Tween-20);
2. Then, 10 μL of malachite green solution (Sigma) was added to each well to terminate the reaction;
3. The concentration of resulting inorganic phosphate was determined according to the instructions of the reagent manufacturer;
4. The enzymatic activity of CD73 was calculated based on the concentration of the product, and then IC50 values were determined by non-linear regression analysis of the inhibition percentage of the compounds of the present invention at different concentrations.

In assay [1] the target is T2, CD73 enzymatic activity expressed on the cell surface of MDA-MB-231 cells (Homo sapiens, UniProt P21589).
T2 construct: Human breast cancer cells MDA-MB-231 that endogenously express CD73 were used; host or cells: MDA-MB-231
T2 sequence (P21589 27-549): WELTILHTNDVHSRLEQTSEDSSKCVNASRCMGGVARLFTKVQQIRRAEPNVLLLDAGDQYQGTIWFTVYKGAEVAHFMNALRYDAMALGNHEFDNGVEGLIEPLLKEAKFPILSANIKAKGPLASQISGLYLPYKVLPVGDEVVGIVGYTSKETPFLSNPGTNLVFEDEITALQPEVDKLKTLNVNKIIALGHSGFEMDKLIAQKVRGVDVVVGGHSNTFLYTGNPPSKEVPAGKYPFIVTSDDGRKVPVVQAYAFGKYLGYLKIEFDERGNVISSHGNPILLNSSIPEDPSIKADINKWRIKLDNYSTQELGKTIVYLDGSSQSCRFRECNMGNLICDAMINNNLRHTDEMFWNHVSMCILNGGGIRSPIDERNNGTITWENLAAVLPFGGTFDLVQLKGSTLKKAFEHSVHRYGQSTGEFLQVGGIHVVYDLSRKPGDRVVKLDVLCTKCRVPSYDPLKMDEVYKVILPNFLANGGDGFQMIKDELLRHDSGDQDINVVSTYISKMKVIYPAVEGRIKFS
Description: Inhibition of CD73 enzymatic activity on the cell surface (Cell Titer Glo (CTG) experiment), MDA-MB-231 cells. Format: cell-based. The settings on record: MDA-MB-231 cells endogenously expressing CD73, AMP, 37° C. for 2 hours, CTG readout; read-out: Cellular activity IC50. On the procedure: Human breast cancer cells MDA-MB-231 that endogenously express CD73 were used in the present invention to evaluate the inhibition of the compound against the CD73 enzymatic activity expressed on the cell surface. The cells used were from the Cell Bank of the Chinese Academy of Sciences. The specific experimental procedures were as follows:
1. Before the test, MDA-MB231 cells were seeded to a 96-well plate at 20000 cells/well;
2. In RPMI1640, 10% fetal bovine serum (Gibco, 10099-141), placed in a 5% CO2 incubator at 37° C. overnight (the cells were washed three times by using a serum-free RPMI medium right before the test):
3. 50 μl of serum-free media containing the compounds at different concentrations were added to the cells and incubated for 15 minutes;
4. 25 μL of 1.2 mM AMP was added for incubation at 37° C. for 2 hours, 25 μL of supernatant was then collected from the cells and mix with 25 μL of 100 μM ATP, and then the concentration of AMP in the samples was determined by CTG (Promega, #G7573);
5. Then, a reduction ratio of the substrate AMP level in the cell culture supernatant collected after the reaction was quantitatively determined to evaluate the inhibitory effects of the examples of the present invention and the positive compounds against the CD73 enzymatic activity on the cell surface;
6. Finally, the concentration of the compound leading to half maximal inhibition of enzymatic activity (IC50) was determined using a four-parameter non-linear logistic model curve fit in Graphpad Prism.
(In general: Cellular ATP, detected with luciferase, serves as a proxy for viable cell number.)

What is called IC50 is the concentration at which inhibition is half-maximal. Turning to `Cc1cc(N[C@@H]2CCc3cc(F)ccc32)c2cnn([C@@H]3O[C@H](COP(=O)(O)CP(=O)(O)O)[C@@H](O)[C@H]3O)c2n1` [Example 24, (((((2R,3S,4R,5R)-5-(4-(((R)-5-fluoro-2,3-dihydro-1H-inden-1-yl)amino)-6-methyl-1H-pyrazolo[3,4-b]pyridin-1-yl)-3,4-dihydroxytetrhydrofuran-2-yl)methoxy)(hydroxy)phosphoryl)methyl)phosphonic acid], the IC50 stood at 1.26 nM on CD73 and 0.256 nM in assay [1].

In the case of `O=P(O)(O)CP(=O)(O)OC[C@H]1C[C@@H](c2ccc3c(N[C@@H]4CCc5ccccc54)nc(Cl)nn23)[C@H](O)[C@@H]1O` [Example 25, (((((1R,2R,3S,4S)-4-(2-chloro-4-(((R)-2,3-dihydro-1H-inden-1-yl)amino)pyrrolo[2,1-f][1,2,4]triazin-7-yl)-2,3-dihydroxycyclopentyl)methoxy)(hydroxy)phosphoryl)methyl)phosphonic acid], the IC50 at CD73 turned out to be 5.5 nM; in assay [1] it was 0.55 nM.

As for `O=P(O)(O)CP(=O)(O)OC[C@H]1C[C@@H](c2ccc3c(N[C@H]4CCc5cc(F)ccc54)nc(Cl)nn23)[C@H](O)[C@@H]1O` [Example 27, (((((1R,2R,3S,4S)-4-(2-chloro-4-(((S)-5-fluoro-2,3-dihydro-1H-inden-1-yl)amino)pyrrolo[2,1-f][1,2,4]triazin-7-yl)-2,3-dihydroxycyclopentyl)methoxy)(hydroxy)phosphoryl)methyl)phosphonic acid], the IC50 against CD73 is 82.6 nM; in assay [1], 2.54 nM.

For `O=P(O)(O)CP(=O)(O)OC[C@H]1C[C@@H](c2ccc3c(N[C@@H]4CCc5cc(F)ccc54)nc(Cl)nn23)[C@H](O)[C@@H]1O` [Example 28, (((((1R,2R,3S,4S)-4-(2-chloro-4-(((R)-5-fluoro-2,3-dihydro-1H-inden-1-yl)amino)pyrrolo[2,1-f][1,2,4]triazin-7-yl)-2,3-dihydroxycyclopentyl)methoxy)(hydroxy)phosphoryl)methyl)phosphonic acid], the IC50 against CD73 came to 3.95 nM; in assay [1], 0.252 nM.

Take `O=P(O)(O)CP(=O)(O)OC[C@H]1C[C@@H](c2ccc3c(N[C@H]4CCc5ccc(F)cc54)nc(Cl)nn23)[C@H](O)[C@@H]1O` [Example 29, (((((1R,2R,3S,4S)-4-(2-chloro-4-(((S)-6-fluoro-2,3-dihydro-1H-inden-1-yl)amino)pyrrolo[2,1-f][1,2,4]triazin-7-yl)-2,3-dihydroxycyclopentyl)methoxy)(hydroxy)phosphoryl)methyl)phosphonic acid]: the IC50 against CD73 was 15 nM; in assay [1] it was 0.71 nM.

With `O=P(O)(O)CP(=O)(O)OC[C@H]1C[C@@H](c2ccc3c(N[C@@H]4CCc5ccc(F)cc54)nc(Cl)nn23)[C@H](O)[C@@H]1O` [Example 30, (((((1R,2R,3S,4S)-4-(2-chloro-4-(((R)-6-fluoro-2,3-dihydro-1H-inden-1-yl)amino)pyrrolo[2,1-f][1,2,4]triazin-7-yl)-2,3-dihydroxycyclopentyl)methoxy)(hydroxy)phosphoryl)methyl)phosphonic acid], the IC50 against CD73 is 3.4 nM; in assay [1], 0.19 nM.

Turning to `O=P(O)(O)CP(=O)(O)OC[C@H]1C[C@@H](c2ccc3c(N[C@H]4CCc5cc(F)c(F)cc54)nc(Cl)nn23)[C@H](O)[C@@H]1O` [Example 31, (((((1R,2R,3S,4S)-4-(2-chloro-4-(((S)-5,6-difluoro-2,3-dihydro-1H-inden-1-yl)amino)pyrrolo[2,1-f][1,2,4]triazin-7-yl)-2,3-dihydroxycyclopentyl)methoxy)(hydroxy)phosphoryl)methyl)phosphonic acid], the 50% inhibitory concentration (IC50) against CD73 was 48.6 nM; in assay [1], 0.95 nM.

Turning to `O=P(O)(O)CP(=O)(O)OC[C@H]1C[C@@H](c2ccc3c(N[C@@H]4CCc5cc(F)c(F)cc54)nc(Cl)nn23)[C@H](O)[C@@H]1O` [Example 32, (((((1R,2R,3S,4S)-4-(2-chloro-4-(((R)-5,6-difluoro-2,3-dihydro-1H-inden-1-yl)amino)pyrrolo[2,1-f][1,2,4]triazin-7-yl)-2,3-dihydroxycyclopentyl)methoxy)(hydroxy)phosphoryl)methyl)phosphonic acid], the figures for the IC50 (against CD73; in assay [1]) were 4.08 nM and 0.27 nM, respectively.

`O=P(O)(O)CP(=O)(O)OC[C@H]1C[C@@H](c2ccc3c(N[C@H]4CCc5cc(F)cc(F)c54)nc(Cl)nn23)[C@H](O)[C@@H]1O` [Example 33, (((((1R,2R,3S,4S)-4-(2-chloro-4-(((S)-5,7-difluoro-2,3-dihydro-1H-inden-1-yl)amino)pyrrolo[2,1-f][1,2,4]triazin-7-yl)-2,3-dihydroxycyclopentyl)methoxy)(hydroxy)phosphoryl)methyl)phosphonic acid]: the IC50 on CD73 was determined as 27.9 nM; in assay [1], 2.4 nM.

`O=P(O)(O)CP(=O)(O)OC[C@H]1C[C@@H](c2ccc3c(N[C@@H]4CCc5cc(F)cc(F)c54)nc(Cl)nn23)[C@H](O)[C@@H]1O` [Example 34, (((((1R,2R,3S,4S)-4-(2-chloro-4-(((R)-5,7-difluoro-2,3-dihydro-1H-inden-1-yl)amino)pyrrolo[2,1-f][1,2,4]triazin-7-yl)-2,3-dihydroxycyclopentyl)methoxy)(hydroxy)phosphoryl)methyl)phosphonic acid]: the figures for the IC50 (against CD73; in assay [1]) were 1.01 nM and 0.22 nM, respectively.

For `O=P(O)(O)CP(=O)(O)OC[C@H]1C[C@@H](c2ccc3c(N[C@H]4CCc5ccc(C(F)(F)F)cc54)nc(Cl)nn23)[C@H](O)[C@@H]1O` [Example 35, (((((1R,2R,3S,4S)-4-(2-chloro-4-(((S)-6-(trifluoromethyl)-2,3-dihydro-1H-inden-1-yl)amino)pyrrolo[2,1-f][1,2,4]triazin-7-yl)-2,3-dihydroxycyclopentyl)methoxy)(hydroxy)phosphoryl)methyl)phosphonic acid], the figures for the IC50 (against CD73; in assay [1]) were 354 nM and 5.73 nM, respectively.

For the compound `O=P(O)(O)CP(=O)(O)OC[C@H]1C[C@@H](c2ccc3c(N[C@@H]4CCc5ccc(C(F)(F)F)cc54)nc(Cl)nn23)[C@H](O)[C@@H]1O` [Example 36, (((((1R,2R,3S,4S)-4-(2-chloro-4-(((R)-6-(trifluoromethyl)-2,3-dihydro-1H-inden-1-yl)amino)pyrrolo[2,1-f][1,2,4]triazin-7-yl)-2,3-dihydroxycyclopentyl)methoxy)(hydroxy)phosphoryl)methyl)phosphonic acid], the IC50 against CD73 stood at 21.7 nM; in assay [1], 0.63 nM.
